In PubChem BioAssay (NCI):
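Compound exposure: 48 hours, 5 concentrations, 96-well plates. TGI denotes the concentration required for complete inhibition of growth.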

Experiments:
Assay in all cases: NCI-60 cell line screen, 48 h
786-0 renal = system: 786-0 renal
A498 renal = system: A498 renal
A549 NSCLC = system: A549 NSCLC
ACHN renal = system: ACHN renal
CAKI-1 renal = system: CAKI-1 renal
CCRF-CEM leukemia = system: CCRF-CEM leukemia
COLO 205 colon = system: COLO 205 colon
DLD-1 colon = system: DLD-1 colon
DMS 114 small cell lung = system: DMS 114 small cell lung
DMS 273 small cell lung = system: DMS 273 small cell lung
EKVX NSCLC = system: EKVX NSCLC
HCC-2998 colon = system: HCC-2998 colon
HCT-116 colon = system: HCT-116 colon
HCT-15 colon = system: HCT-15 colon
HOP-62 NSCLC = system: HOP-62 NSCLC
HOP-92 NSCLC = system: HOP-92 NSCLC
HT29 colon = system: HT29 colon
IGROV1 ovarian = system: IGROV1 ovarian
K-562 leukemia = system: K-562 leukemia
KM12 colon = system: KM12 colon
KM20L2 colon = system: KM20L2 colon
LOX IMVI melanoma = system: LOX IMVI melanoma
LXFL 529 NSCLC = system: LXFL 529 NSCLC
M14 melanoma = system: M14 melanoma
M19-MEL melanoma = system: M19-MEL melanoma
MALME-3M melanoma = system: MALME-3M melanoma
MOLT-4 leukemia = system: MOLT-4 leukemia
NCI-H226 lung = system: NCI-H226 lung
NCI-H23 lung = system: NCI-H23 lung
NCI-H460 lung = system: NCI-H460 lung
NCI-H522 lung = system: NCI-H522 lung
OVCAR-3 ovarian = system: OVCAR-3 ovarian
OVCAR-4 ovarian = system: OVCAR-4 ovarian
OVCAR-5 ovarian = system: OVCAR-5 ovarian
OVCAR-8 ovarian = system: OVCAR-8 ovarian
RPMI-8226 leukemia = system: RPMI-8226 leukemia
RXF 393 renal = system: RXF 393 renal
RXF-631 renal = system: RXF-631 renal
SF-268 CNS = system: SF-268 CNS
SF-295 CNS = system: SF-295 CNS
SF-539 CNS = system: SF-539 CNS
SK-MEL-2 melanoma = system: SK-MEL-2 melanoma
SK-MEL-28 melanoma = system: SK-MEL-28 melanoma
SK-MEL-5 melanoma = system: SK-MEL-5 melanoma
SK-OV-3 ovarian = system: SK-OV-3 ovarian
SN12C renal = system: SN12C renal
SNB-19 CNS = system: SNB-19 CNS
SNB-75 CNS = system: SNB-75 CNS
SNB-78 CNS = system: SNB-78 CNS
SW-620 colon = system: SW-620 colon
TK-10 renal = system: TK-10 renal
U251 CNS = system: U251 CNS
UACC-257 melanoma = system: UACC-257 melanoma
UACC-62 melanoma = system: UACC-62 melanoma
UO-31 renal = system: UO-31 renal
XF 498 CNS = system: XF 498 CNS
HL-60(TB) leukemia = system: HL-60(TB) leukemia

Measured: TGI

CC(=O)NC(CCCNC(=O)N(C)N=O)C(=O)NCc1ccccc1 (stereo unspecified)
> 100 µM: 786-0 renal | A498 renal | A549 NSCLC | ACHN renal | CAKI-1 renal | CCRF-CEM leukemia | COLO 205 colon | DLD-1 colon | DMS 114 small cell lung | DMS 273 small cell lung | EKVX NSCLC | HCC-2998 colon | HCT-116 colon | HCT-15 colon | HOP-62 NSCLC | HOP-92 NSCLC | HT29 colon | IGROV1 ovarian | K-562 leukemia | KM12 colon | KM20L2 colon | LOX IMVI melanoma | LXFL 529 NSCLC | M14 melanoma | M19-MEL melanoma | MALME-3M melanoma | MOLT-4 leukemia | NCI-H226 lung | NCI-H23 lung | NCI-H460 lung | NCI-H522 lung | OVCAR-3 ovarian | OVCAR-4 ovarian | OVCAR-5 ovarian | OVCAR-8 ovarian | RPMI-8226 leukemia | RXF 393 renal | RXF-631 renal | SF-268 CNS | SF-295 CNS | SF-539 CNS | SK-MEL-2 melanoma | SK-MEL-28 melanoma | SK-MEL-5 melanoma | SK-OV-3 ovarian | SN12C renal | SNB-19 CNS | SNB-75 CNS | SNB-78 CNS | SW-620 colon | TK-10 renal | U251 CNS | UACC-257 melanoma | UACC-62 melanoma | UO-31 renal | XF 498 CNS

CCOC(=O)C1CC(=O)C=C2CCCCC21 (stereo unspecified)
> 100 µM: 786-0 renal | A498 renal | A549 NSCLC | ACHN renal | CAKI-1 renal | CCRF-CEM leukemia | COLO 205 colon | DLD-1 colon | DMS 114 small cell lung | DMS 273 small cell lung | EKVX NSCLC | HCC-2998 colon | HCT-116 colon | HCT-15 colon | HL-60(TB) leukemia | HOP-62 NSCLC | HOP-92 NSCLC | HT29 colon | IGROV1 ovarian | K-562 leukemia | KM12 colon | LOX IMVI melanoma | LXFL 529 NSCLC | M14 melanoma | M19-MEL melanoma | MALME-3M melanoma | MOLT-4 leukemia | NCI-H23 lung | NCI-H460 lung | NCI-H522 lung | OVCAR-3 ovarian | OVCAR-4 ovarian | OVCAR-5 ovarian | OVCAR-8 ovarian | RPMI-8226 leukemia | RXF 393 renal | RXF-631 renal | SF-268 CNS | SF-295 CNS | SF-539 CNS | SK-MEL-2 melanoma | SK-MEL-28 melanoma | SK-MEL-5 melanoma | SK-OV-3 ovarian | SN12C renal | SNB-19 CNS | SNB-75 CNS | SNB-78 CNS | SW-620 colon | TK-10 renal | U251 CNS | UACC-257 melanoma | UACC-62 melanoma | UO-31 renal | XF 498 CNS
